Data set [1] concerns C57BL/6J mice fed a high-fat diet. Kind of data set: 13-week HFD feeding study: body weight, food intake, liver weight, metabolic parameters. The conditions noted are these: 13 weeks; for Body weight gain / HOMA-IR / Fasting plasma glucose / Feed efficiency / Food intake / Liver weight / Plasma cholesterol / Plasma insulin / Plasma leptin / Plasma triglycerides: male C57BL/6J mice, HFD, mean ± SE; for Body weight gain: 30 mg/kg body weight/day in diet; for Body weight gain / Fasting plasma glucose / Feed efficiency / Food intake / Liver weight / Plasma cholesterol / Plasma insulin / Plasma leptin / Plasma triglycerides: n = 11–12; for HOMA-IR / Fasting plasma glucose / Feed efficiency / Food intake / Liver weight / Plasma cholesterol / Plasma insulin / Plasma leptin / Plasma triglycerides: 30 mg/kg/day in diet; for HOMA-IR: insulin (mU/L) × glucose (mmol/L)/22.5. Format: in vivo, mouse. An excerpt:
(§1) Nine-week old male C57BL/6J mice, obtained from The Jackson Laboratory (Bar Harbor, ME, USA), were housed individually in plastic cages under a 12–12-hr light-dark cycle. They were assigned randomly to four groups consisting of 12 mice each. One group (control) was fed a HFD (Dyets Inc., Bethlehem, PA, USA) containing 60%, 20% and 20% total calories from fat, carbohydrate and protein, respectively, and the other three groups were fed the HFD containing XN, DXN, or TXN. The test compounds were dissolved in an isotropic mixture of oleic acid:propylene glycol:Tween 80, 0.9:1:1 by weight (OPT) before incorporation into the HFD. The control diet contained an identical amount of OPT. All diets were prepared in pellet form by Dyets, Inc. (Bethlehem, PA, USA). The mouse diets were formulated to deliver a dose of 30 mg test compound per kg body weight per day. Food intake was measured three times per week and body weights were recorded weekly. At the end of 13 weeks of feeding, the mice were euthanized and blood, liver and skeletal muscle were collected for analyses. All animal protocols were approved by Institutional Animal Care and Use Committee (IACUC) at Oregon State University. Animal experiments were carried out in accordance with the relevant guidelines and regulations.
(§2) Plasma triglycerides and total cholesterol were analyzed with commercially available kits (Fisher-Scientific, Pittsburgh, PA, USA). Plasma glucose was analyzed by a test kit obtained from Wako Diagnostics (Mountain View, CA, USA). Plasma insulin and leptin were analyzed by ELISA kits purchased from Alpco Diagnostics (Salem, NH, USA) and Crystal Chem (Downers Grove, IL, USA), respectively. Homeostasis Model Assessment of Insulin Resistance (HOMA-IR) was calculated as follows: fasting plasma insulin concentration (mU/L) × fasting plasma glucose level (mmol/L)/22.5[95]. Plasma levels of AST and ALT were measured using commercially-available kits (Bioo Scientific Corp., Austin, TX, USA) as indicators of in vivo liver toxicity.
(§3) Body weight, food intake, and metabolic measurements: data were analyzed using a one-way ANOVA in PROC GLM for single measures within animals (i.e., liver, plasma, and muscle metabolic measures) and a repeated-measures-in-time design ANOVA in PROC MIXED for repeated measures within animals (i.e., body weight, feed intake, and feed efficiency). The area-under-the-curve (AUC) for the glucose tolerance tests were calculated using the trapezoidal rule. Before statistical analysis, data were examined for variance homogeneity and normality. To achieve normality, liver, plasma, and muscle XN data and plasma insulin data were natural log-transformed. For statistical comparisons, the control group was compared with each XN metabolite group.

Data set [2] has the same test system. Kind of data set: In vivo liver toxicity: plasma AST and ALT. The conditions noted are these: male C57BL/6J mice, HFD, 30 mg/kg/day in diet, 13 weeks; mean ± SE, n = 11–12. Further details: species or system mouse.
From the text: as §1, §2

Data set [3] has the same test system. Kind of data set: Glucose tolerance test. The conditions noted are these: 30 mg/kg/day, 6 h fast, glucose 2 g/kg i.p., n = 5; for Glucose tolerance test AUC, decrease compared with control, 4 weeks: 4 weeks of feeding; for Glucose tolerance test AUC, decrease compared with control, 11 weeks: 11 weeks of feeding. It is filed as in vivo, mouse. How it is done: Glucose tolerance tests were conducted after 4 and 11 weeks of feeding the experimental diets. Five mice from each treatment group were used in each glucose tolerance assay. Mice were fasted for 6 h prior to baseline blood glucose testing. Blood was collected from the mice by tail puncture, and glucose measurements were taken using a One Touch UltraMini glucometer (LifeScan, Inc., Milpitas, CA, USA). Mice were weighed and then given an i.p. injection of glucose equal to 2 g/kg body weight. Glucose readings were taken at 0 minutes (prior to glucose injection), and at 15 min, 30 min, 1 h, and 2 h after glucose injection.
as §3

A further data set concerns C2C12 cells. Kind of data set: Seahorse OCR and ECAR measurements (mitochondrial uncoupling). Format: cell-based, mouse. The conditions noted are these: for Increase of OCR in the presence of oligomycin (uncoupled respiration): 5 µM compound after 1 μM oligomycin, compared to the baseline, five independent experiments; for ECAR after addition of compound: 5 µM final concentration, after oligomycin 1 μM. How it is done:
OCR and ECAR measurements were performed with a Seahorse XF 24 Analyzer (Agilent Technologies, Inc., Santa Clara, CA, USA). C2C12 cells were plated in culture medium at a density of 40,000 cells per well in a 24-well plate. The cells were then allowed to adhere for 24 h (37 °C, 5% CO2). Prior to the assay, the cells were washed with freshly prepared running medium consisting of Seahorse XF Assay medium (Agilent Technologies, Inc., Santa Clara, CA, USA), 10 mM glucose and 1 mM sodium pyruvate. The pH of the medium was adjusted to 7.4 with 1 M NaOH. The cells were then equilibrated for one hour at 37 °C without CO2. […] To overcome this problem, the test compounds were first dissolved in ethanol and the resulting solution was diluted 100-fold in treatment medium (9 parts XF media and 1 part 10% FBS media) which was added directly to cells. The treatment medium contained 1% FBS and after a further 10-fold dilution into the media in wells, only 0.1% FBS was present during OCR and ECAR measurements. The final concentrations in the wells were: 1 μM for oligomycin, and 5 μM for XN, DXN or TXN. The concentration of oligomycin and the cell density used were selected based on preliminary experiments. Ethanol was added to the control wells not to exceed a final concentration of 0.1% (vehicle control). OCR and ECAR were measured at 9-min intervals.
Seahorse data: to show a consistent baseline, OCR values (in pmol/min/mg protein) and ECAR values (in mpH/min/mg protein) for each value were divided, prior to statistical analysis, by the average of the four pre oligomycin treatment values (0, 8, 17, and 25 min) for the corresponding well and are shown as % pre oligomycin values. To account for repeated measures within wells over time, we utilized a repeated-measures-in-time design using ANOVA procedures in PROC MIXED (SAS). Fixed effects in the model were treatment (control, 5 μM XN, 5 μM DXN, and 5 μM TXN for the compound study), time (0, 8, 17, 25, 34, 43, 52, 60, 69, 78, 86, and 95 min), and their interaction. The random effect was the experiment (5 experiments for the compound study). To account for repeated measures within wells over time, a first order homogeneous variance-covariance matrix [AR(1)] was fitted for each well. Using the ESTIMATE statement, a priori contrasts were constructed by comparing the changes in compound treated cells from the last two time points prior to compound treatment (average 52 and 60 min) to the changes in control cells during the same time-period. This was carried out for each compound and dosage for 69, 78, 86, and 95 min separately and for all four time points combined. Results are shown in the text and the graphs as least squares means and their corresponding SEM (standard error of mean). […]

For `COc1cc(O)c(CC=C(C)C)c(O)c1C(=O)CCc1ccc(O)cc1` [DXN, α,β-Dihydroxanthohumol], in data set [1] (HFD mice, 30 mg/kg/day), the “Plasma leptin concentration, change compared with controls” value is −26%. Besides, in data set [1], the Body weight gain stood at 15.1 ± 1.3 g, the HOMA-IR amounted to 22.0 ± 5.2, the Fasting plasma glucose came to 150 ± 13.0 mg/dL and the Feed efficiency is 0.062 ± 0.006 g weight gain/g food intake. Moreover, in data set [1], the Food intake is given as 2.66 ± 0.09 g/day, the Liver weight was found to be 1.11 ± 0.07 g, the Plasma cholesterol is 167 ± 8.5 mg/dL and the Plasma insulin is 2.08 ± 0.69 ng/mL. Moreover, in data set [1], the Plasma leptin was 8.48 ± 1.00 ng/mL and the Plasma triglycerides is 84.4 ± 4.9 mg/dL. In addition, in data set [2], the “Plasma ALT” value was determined as 55.8 ± 6.1 U/L and the “Plasma AST” value is 105.6 ± 6.5 U/L. Further, in data set [3], the “Glucose tolerance test AUC, decrease compared with control, 4 weeks” value (from here on “Glucose tolerance test AUC, decrease … 4 weeks”) came out at 46% and the “Glucose tolerance test AUC, decrease compared with control, 11 weeks” value (“Glucose tolerance test AUC, decrease … 11 weeks” for short) is reported as 35%. Besides, in the data set on C2C12 cells, the “Increase of OCR in the presence of oligomycin (uncoupled respiration)” value is given as 28.7 ± 6.9% and the “ECAR after addition of compound” value is “significant decrease”.

With `COc1cc(O)c(CCC(C)C)c(O)c1C(=O)CCc1ccc(O)cc1` [TXN, tetrahydroxanthohumol], in data set [1] (HFD mice, 30 mg/kg/day), the “HOMA-IR index as % of control mice” value is reported as 13 % of control mice; the “Liver weight, change compared with controls” value was −21%; the “Plasma insulin, change compared with controls” value is listed as −82%; the “Plasma leptin concentration, change compared with controls” value was −44%. Moreover, in data set [1], the Body weight gain stood at 9.70 ± 1.4 g, the HOMA-IR was found to be 4.10 ± 0.3, the Fasting plasma glucose came out at 118 ± 7.2 mg/dL and the Feed efficiency was 0.042 ± 0.006 g weight gain/g food intake. In data set [1], this compound displayed a Food intake of 2.51 ± 0.09 g/day, a Liver weight of 0.93 ± 0.07 g, a Plasma cholesterol of 167 ± 8.9 mg/dL and a Plasma insulin of 0.49 ± 0.08 ng/mL. In data set [1], the Plasma leptin was found to be 6.39 ± 1.04 ng/mL and the Plasma triglycerides was 79.3 ± 7.8 mg/dL. In addition, in data set [2], the “Plasma ALT” value amounted to 56.8 ± 10.5 U/L and the “Plasma AST” value is reported as 110.5 ± 6.0 U/L. In addition, in data set [3], the “Glucose tolerance test AUC, decrease … 4 weeks” value is 61% and the “Glucose tolerance test AUC, decrease … 11 weeks” value is 45%. Besides, in the data set with C2C12 cells, the “Increase of OCR in the presence of oligomycin (uncoupled respiration)” value is on record as 56.8 ± 6.9% and the “ECAR after addition of compound” value is “significant decrease”.

On to `COc1cc(O)c(CC=C(C)C)c(O)c1C(=O)/C=C/c1ccc(O)cc1` [XN, 3′-[3,3-dimethylallyl]-2′,4′,4-trihydroxy-6′-methoxychalcone], for which, in data set [1], the Body weight gain is given as 16.1 ± 1.3 g, the HOMA-IR was determined as 31.3 ± 1.7, the Fasting plasma glucose came to 169 ± 8.3 mg/dL and the Feed efficiency was 0.068 ± 0.006 g weight gain/g food intake. In data set [1], this compound returned a Food intake of 2.59 ± 0.09 g/day, a Liver weight of 1.14 ± 0.07 g, a Plasma cholesterol of 196 ± 8.5 mg/dL and a Plasma insulin of 2.61 ± 0.65 ng/mL. In data set [1], this compound gave a Plasma leptin of 10.6 ± 1.00 ng/mL and a Plasma triglycerides of 80.6 ± 4.2 mg/dL. In addition, in data set [2], the “Plasma ALT” value was 68.8 ± 6.8 U/L and the “Plasma AST” value came to 112.3 ± 3.3 U/L. In data set [3], the “Glucose tolerance test AUC, decrease … 4 weeks” value came out at 43% and the “Glucose tolerance test AUC, decrease … 11 weeks” value worked out at 12%. Further, in the data set with C2C12 cells, the “ECAR after addition of compound” value is “significant decrease”.

The values are drawn from PMC5766630, “Non-estrogenic Xanthohumol Derivatives Mitigate Insulin Resistance and Cognitive Impairment in High-Fat Diet-induced Obese Mice” (Scientific Reports, 2018).
